# Measurements taken from ChEMBL document CHEMBL5512649, “Drug development and potential targets for Cushing's syndrome” (Eur J Med Chem, 2024).
# Legend:
# [1] = target: Nuclear factor NF-kappa-B complex (Homo sapiens, UniProt P19838+Q00653+Q04206); test: Inhibition of NF-kappaB (unknown origin); type: protein-complex assay
# [2] = target: Cyclin-dependent kinase 6 (Homo sapiens, UniProt Q00534); test: Inhibition of CDK6 (unknown origin)
# [3] = target: ATP-dependent translocase ABCB1 (Homo sapiens, UniProt P08183); test: Inhibition of MDR1 (unknown origin)
# ATP-dependent translocase ABCB1, sequence (P08183 whole entry): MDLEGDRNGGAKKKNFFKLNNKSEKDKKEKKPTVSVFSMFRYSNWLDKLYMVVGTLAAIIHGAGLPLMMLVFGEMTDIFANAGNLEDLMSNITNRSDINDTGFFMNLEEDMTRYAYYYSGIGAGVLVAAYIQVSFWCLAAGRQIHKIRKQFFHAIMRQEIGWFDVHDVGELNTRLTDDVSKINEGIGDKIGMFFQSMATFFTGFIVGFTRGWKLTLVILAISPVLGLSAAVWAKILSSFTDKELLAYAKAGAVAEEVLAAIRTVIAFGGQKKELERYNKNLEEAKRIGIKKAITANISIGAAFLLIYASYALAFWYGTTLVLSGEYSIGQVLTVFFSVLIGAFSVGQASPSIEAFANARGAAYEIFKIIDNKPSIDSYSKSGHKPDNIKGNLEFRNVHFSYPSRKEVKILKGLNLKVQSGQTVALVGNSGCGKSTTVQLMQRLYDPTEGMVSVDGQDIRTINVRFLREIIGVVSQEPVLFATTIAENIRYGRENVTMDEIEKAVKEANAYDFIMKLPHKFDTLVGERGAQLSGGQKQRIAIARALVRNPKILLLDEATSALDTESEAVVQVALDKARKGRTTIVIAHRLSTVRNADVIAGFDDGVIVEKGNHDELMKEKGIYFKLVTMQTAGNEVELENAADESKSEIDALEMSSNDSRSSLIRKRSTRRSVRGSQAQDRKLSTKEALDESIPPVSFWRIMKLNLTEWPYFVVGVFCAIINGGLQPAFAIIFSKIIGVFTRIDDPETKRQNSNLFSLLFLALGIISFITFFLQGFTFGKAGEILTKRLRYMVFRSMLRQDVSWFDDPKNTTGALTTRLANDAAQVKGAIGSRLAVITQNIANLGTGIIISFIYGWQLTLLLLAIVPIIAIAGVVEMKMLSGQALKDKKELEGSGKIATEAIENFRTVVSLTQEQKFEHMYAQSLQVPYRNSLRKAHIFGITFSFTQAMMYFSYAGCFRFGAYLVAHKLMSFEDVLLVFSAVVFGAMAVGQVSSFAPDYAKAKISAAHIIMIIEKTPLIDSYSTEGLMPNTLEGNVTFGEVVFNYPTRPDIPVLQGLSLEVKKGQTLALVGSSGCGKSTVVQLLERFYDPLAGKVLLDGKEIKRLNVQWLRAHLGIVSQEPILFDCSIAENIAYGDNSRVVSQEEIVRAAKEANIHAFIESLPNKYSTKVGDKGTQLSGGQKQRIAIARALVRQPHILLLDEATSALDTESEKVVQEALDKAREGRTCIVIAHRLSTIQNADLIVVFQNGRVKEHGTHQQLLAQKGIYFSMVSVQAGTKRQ
# [4] = target: DNA (cytosine-5)-methyltransferase 1 (Homo sapiens, UniProt P26358); test: Inhibition of DNMT1 (unknown origin)
# DNA (cytosine-5)-methyltransferase 1, sequence (P26358 whole entry): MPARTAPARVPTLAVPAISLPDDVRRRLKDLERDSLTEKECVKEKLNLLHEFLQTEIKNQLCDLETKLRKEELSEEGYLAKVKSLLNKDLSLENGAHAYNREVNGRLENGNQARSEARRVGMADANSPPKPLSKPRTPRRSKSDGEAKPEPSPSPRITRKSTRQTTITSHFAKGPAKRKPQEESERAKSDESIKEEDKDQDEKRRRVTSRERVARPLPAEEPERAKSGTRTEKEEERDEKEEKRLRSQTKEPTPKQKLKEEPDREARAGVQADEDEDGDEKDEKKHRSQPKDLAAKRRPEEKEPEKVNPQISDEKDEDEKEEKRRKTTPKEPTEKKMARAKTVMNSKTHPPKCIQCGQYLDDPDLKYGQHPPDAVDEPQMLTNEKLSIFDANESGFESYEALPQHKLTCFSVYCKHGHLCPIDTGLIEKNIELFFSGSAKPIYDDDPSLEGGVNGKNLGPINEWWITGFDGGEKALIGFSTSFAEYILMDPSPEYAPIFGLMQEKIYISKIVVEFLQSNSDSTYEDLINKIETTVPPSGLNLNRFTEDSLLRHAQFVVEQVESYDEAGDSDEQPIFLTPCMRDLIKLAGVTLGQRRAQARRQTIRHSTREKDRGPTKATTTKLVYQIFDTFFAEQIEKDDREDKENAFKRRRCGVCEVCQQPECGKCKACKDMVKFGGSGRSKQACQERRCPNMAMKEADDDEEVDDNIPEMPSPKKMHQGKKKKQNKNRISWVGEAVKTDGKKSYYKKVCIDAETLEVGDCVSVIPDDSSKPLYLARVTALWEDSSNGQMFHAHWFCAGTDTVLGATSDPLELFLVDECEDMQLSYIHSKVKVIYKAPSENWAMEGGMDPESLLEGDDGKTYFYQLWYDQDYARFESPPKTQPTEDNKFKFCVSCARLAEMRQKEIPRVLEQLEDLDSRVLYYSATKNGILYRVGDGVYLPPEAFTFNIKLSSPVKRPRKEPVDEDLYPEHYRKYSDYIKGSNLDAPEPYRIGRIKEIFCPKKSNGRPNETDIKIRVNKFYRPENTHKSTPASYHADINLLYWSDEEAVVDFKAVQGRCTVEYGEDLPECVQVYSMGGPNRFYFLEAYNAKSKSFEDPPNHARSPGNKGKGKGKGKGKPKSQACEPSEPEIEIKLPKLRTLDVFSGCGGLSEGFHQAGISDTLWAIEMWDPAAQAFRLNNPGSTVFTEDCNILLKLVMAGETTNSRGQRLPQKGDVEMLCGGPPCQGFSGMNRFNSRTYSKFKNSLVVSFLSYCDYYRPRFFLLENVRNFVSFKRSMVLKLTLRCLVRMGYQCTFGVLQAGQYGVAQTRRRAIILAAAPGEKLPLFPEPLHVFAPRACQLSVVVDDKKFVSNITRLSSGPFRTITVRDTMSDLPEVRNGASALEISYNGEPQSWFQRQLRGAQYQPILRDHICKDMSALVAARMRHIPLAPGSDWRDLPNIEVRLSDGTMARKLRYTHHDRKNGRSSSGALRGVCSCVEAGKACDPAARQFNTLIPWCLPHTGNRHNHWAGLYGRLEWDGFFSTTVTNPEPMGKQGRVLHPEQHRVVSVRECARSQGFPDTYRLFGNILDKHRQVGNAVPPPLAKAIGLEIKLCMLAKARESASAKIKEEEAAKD
# [5] = target: T1, Histone acetyltransferase type B catalytic subunit (Homo sapiens, UniProt O14929); test: Inhibition of HAT1 (unknown origin)
# T1 sequence (O14929 whole entry): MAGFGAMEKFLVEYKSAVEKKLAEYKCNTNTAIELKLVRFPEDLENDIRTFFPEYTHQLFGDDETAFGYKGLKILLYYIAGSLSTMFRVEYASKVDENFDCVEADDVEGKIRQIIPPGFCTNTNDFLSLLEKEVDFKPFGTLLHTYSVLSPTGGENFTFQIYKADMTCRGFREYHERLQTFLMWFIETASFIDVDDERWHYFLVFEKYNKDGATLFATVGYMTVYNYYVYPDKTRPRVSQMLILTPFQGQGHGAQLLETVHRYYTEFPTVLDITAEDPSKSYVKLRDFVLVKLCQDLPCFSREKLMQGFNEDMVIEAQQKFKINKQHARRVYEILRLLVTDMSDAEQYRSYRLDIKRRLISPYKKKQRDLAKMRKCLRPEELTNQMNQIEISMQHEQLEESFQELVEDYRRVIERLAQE
# [6] = target: Cyclin-dependent kinase 1 (Homo sapiens, UniProt P06493); test: Inhibition of CDK1 (unknown origin)
# Cyclin-dependent kinase 1, sequence (P06493 whole entry): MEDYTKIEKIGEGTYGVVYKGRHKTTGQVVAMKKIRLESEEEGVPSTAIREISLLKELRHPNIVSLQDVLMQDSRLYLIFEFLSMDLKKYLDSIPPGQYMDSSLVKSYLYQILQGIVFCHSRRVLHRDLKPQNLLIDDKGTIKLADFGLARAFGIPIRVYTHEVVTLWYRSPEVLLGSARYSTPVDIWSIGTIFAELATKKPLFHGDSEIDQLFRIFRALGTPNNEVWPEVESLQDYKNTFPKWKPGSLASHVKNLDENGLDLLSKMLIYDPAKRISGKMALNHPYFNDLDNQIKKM
# [7] = target: Cyclin-dependent kinase 9 (Homo sapiens, UniProt P50750); test: Inhibition of CDK9 (unknown origin)
# [8] = target: Cyclin-dependent kinase 4 (Homo sapiens, UniProt P11802); test: Inhibition of CDK4 (unknown origin)
# Nuclear factor NF-kappa-B complex, sequence (P19838 1-433 limits assumed): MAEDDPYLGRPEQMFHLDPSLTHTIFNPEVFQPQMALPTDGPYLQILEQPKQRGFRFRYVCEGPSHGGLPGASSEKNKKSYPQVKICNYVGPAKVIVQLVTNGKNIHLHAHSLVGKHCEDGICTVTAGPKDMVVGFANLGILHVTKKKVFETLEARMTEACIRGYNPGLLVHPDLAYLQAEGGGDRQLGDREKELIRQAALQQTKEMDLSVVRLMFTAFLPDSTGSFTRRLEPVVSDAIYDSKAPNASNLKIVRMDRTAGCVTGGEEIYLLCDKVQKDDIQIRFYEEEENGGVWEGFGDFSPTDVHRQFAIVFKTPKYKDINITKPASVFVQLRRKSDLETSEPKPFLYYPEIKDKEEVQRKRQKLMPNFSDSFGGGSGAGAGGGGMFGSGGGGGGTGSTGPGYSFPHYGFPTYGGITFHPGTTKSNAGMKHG
# Nuclear factor NF-kappa-B complex, sequence (Q00653 1-454 limits assumed): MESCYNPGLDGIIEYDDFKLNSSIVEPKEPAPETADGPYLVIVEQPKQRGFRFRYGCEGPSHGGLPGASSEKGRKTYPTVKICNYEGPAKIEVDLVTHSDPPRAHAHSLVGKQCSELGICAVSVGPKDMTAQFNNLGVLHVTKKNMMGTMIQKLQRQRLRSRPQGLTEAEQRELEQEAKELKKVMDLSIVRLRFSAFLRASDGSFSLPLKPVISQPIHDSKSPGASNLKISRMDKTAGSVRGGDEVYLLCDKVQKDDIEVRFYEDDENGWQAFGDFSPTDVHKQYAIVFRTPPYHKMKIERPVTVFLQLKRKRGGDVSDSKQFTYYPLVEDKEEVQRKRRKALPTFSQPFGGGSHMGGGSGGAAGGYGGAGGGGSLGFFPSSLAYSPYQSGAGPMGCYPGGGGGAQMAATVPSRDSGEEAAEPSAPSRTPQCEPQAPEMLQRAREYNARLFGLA
# Nuclear factor NF-kappa-B complex, sequence (Q04206 whole entry): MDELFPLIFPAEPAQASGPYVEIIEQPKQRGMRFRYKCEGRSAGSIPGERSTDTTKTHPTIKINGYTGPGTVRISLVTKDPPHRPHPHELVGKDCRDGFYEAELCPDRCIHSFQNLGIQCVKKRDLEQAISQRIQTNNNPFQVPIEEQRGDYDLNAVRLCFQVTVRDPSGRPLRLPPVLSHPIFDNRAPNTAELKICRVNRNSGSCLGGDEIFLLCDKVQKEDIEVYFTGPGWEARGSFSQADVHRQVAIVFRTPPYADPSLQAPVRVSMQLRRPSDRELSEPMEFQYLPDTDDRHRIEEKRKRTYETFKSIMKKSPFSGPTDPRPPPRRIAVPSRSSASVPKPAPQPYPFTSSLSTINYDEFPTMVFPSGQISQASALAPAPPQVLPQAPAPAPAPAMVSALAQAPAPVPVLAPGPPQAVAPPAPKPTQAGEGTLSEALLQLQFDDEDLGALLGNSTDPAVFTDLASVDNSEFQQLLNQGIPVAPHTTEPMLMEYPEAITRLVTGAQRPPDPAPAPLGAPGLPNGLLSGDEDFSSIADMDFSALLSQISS
# Cyclin-dependent kinase 6, sequence (Q00534 whole entry): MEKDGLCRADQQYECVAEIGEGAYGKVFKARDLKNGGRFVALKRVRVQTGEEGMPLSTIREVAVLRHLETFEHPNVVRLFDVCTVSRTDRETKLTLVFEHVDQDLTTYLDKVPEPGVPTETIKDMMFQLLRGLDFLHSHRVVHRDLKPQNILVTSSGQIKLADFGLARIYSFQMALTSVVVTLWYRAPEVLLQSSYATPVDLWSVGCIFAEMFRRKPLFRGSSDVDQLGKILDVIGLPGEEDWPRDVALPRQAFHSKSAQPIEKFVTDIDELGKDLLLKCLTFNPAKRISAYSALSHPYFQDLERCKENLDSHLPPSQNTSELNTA
smiles,measurement,setting,value
CC(C)C[C@H](NC(=O)[C@H](Cc1ccccc1)NC(=O)c1cnccn1)B(O)O [BORTEZOMIB],IC50,[1],≤ 10 nM
CC(C)c1c2cc(-c3nc(Nc4ccc(N5CCNCC5)cn4)ncc3F)ccc2nn1C [CULMERCICLIB],IC50,[2],2.4 nM
COc1cc(/C=C/C(=O)CC(=O)/C=C/c2ccc(O)c(OC)c2)ccc1O [CURCUMIN],IC50,[3],≤ 1000 nM
same,IC50,[4],≤ 1000 nM
same,IC50,[5],≤ 1000 nM
CNC(=O)c1nn(C)c2c1C(C)(C)Cc1cnc(Nc3ccc(N4CCN(C)CC4)cc3)nc1-2 [MILCICLIB],IC50,[6],45 nM
O=C(Oc1ccccc1C(=O)O)c1ccccc1O [SALSALATE],IC50,[1],≤ 2000 nM
O=C(O)c1cc(/N=N/c2ccc(S(=O)(=O)Nc3ccccn3)cc2)ccc1O [SULFASALAZINE],IC50,[1],10000 nM
CN1CC[C@H](c2c(OP(=O)(O)O)cc(O)c3c(=O)cc(-c4ccccc4Cl)oc23)[C@H](O)C1 [TP-1287],IC50,[7],10 nM
CC(C)[C@]12O[C@H]1[C@@H]1O[C@]13[C@]1(O[C@H]1C[C@H]1C4=C(CC[C@@]13C)C(=O)OC4)[C@@H]2O [TRIPTOLIDE],IC50,[1],10 nM
C[C@@H]1C[C@H]2[C@@H]3CCC4=CC(=O)C=C[C@]4(C)C3=CC[C@]2(C)[C@@]1(O)C(=O)CO [VAMOROLONE],IC50,[1],65.9 nM
CN1CC[C@@H](c2c(O)cc(O)c3c(=O)cc(-c4ccc(C(F)(F)F)cc4Cl)oc23)[C@@H]1CO [VORUCICLIB],IC50,[8],400 nM
